Like-named read-outs stand apart in the source and are kept apart here.
Assays:
[1] = tested on: mouse; assay: Righting Reflex Test in Mouse; assay type: in vivo; details: for ED50: at time of peak activity, read-out: ED50 (dose producing loss of righting reflex in 50% of a group of mice)
Description: Groups of ten mice received the test compound orally or i.p. at various dose levels, a control group receiving vehicle alone. All mice were housed individually in glass beakers and were assessed for loss of righting reflex at 1/4, 1/2, 1, 2, 4 and 6 hours after dosing. […] From the results obtained a dose response line was constructed and the dose producing 50% loss of righting reflex was estimated for each observation time. This ED50 value (the dose producing loss of righting reflex in 50% of a group of mice) was quoted for the time of peak activity.

[2] = tested on: mouse; assay: Rotating Drum Test in Mouse; assay type: in vivo; details: 0.5 h, 30 min. after dosing, 2 min. test period, read-out: ED50 (dose causing 50% of the mice to fall off the drum)
Description: Groups of ten mice received p.o. or i.p. the test compound at various dose levels, a control group receiving the vehicle alone by each route .30 min. after dosing each group of mice was placed on a 30 cm diameter rotating drum revolving at 1 revolution/minute. The mice were placed on the drum against its direction of movement and the number of mice falling off within a 2 min. test period was noted. From the results obtained a dose response line was constructed and the dose causing 50% of the mice to fall off the drum (ED50) was estimated.

[3] = tested on: mouse; assay: Anticonvulsant Test Against Electroshock in Mouse; assay type: in vivo; details: 0.5 h, 30 min. after dosing, electroshock 55 mA, read-out: ED50 (dose protecting 50% of the mice from tonic extension of hind limbs)
Description: 3. Anticonvulsant Test Against Electroshock
Groups of ten mice received p.o. or i.p. the test compound at various dose levels, a control group received the vehicle alone. 30 min. after dosing, each group was then shocked via auricular electrodes using the electroshock apparatus (Ugo Basile ECT apparatus for small mammals) using the following parameters: […]
______________________________________
The number of mice which underwent tonic extension of hind limbs was noted. The dose protecting 50% of the mice (ED50) was estimated.

[4] = tested on: mouse; assay: Potentiation of Hexobarbitone Sleeping Time in Mouse; assay type: in vivo; details: i.p., Hexobarbitone Sodium 65 mg/kg i.v.
Description: 4. Potentiation of Hexobarbitone Sleeping Time
A group of eight control mice received a dose of 65 mg/kg Hexobarbitone Sodium i.v. and subsequent sleeping times were recorded. A time value equivalent to mean sleeping time plus two standard deviations was established as a cut-off point. Other groups of eight mice received in identical dose of Hexobarbitone Sodium and at half the means control sleeping time were given various doses of the test compound i.p. The number of mice in each group asleep at the cut-off was recorded. A dose response curve was constructed and the dose at which 50% of the mice remained asleep at this cut-off point (ED50) was estimated.

[5] = Acute Toxicity Tests in mouse; details: in vivo
Description: 1. The activity of 2-methyl-3-(o-cyanophenyl)-4(3H)-quinazolone hydrochloride was investigated in the mouse by the following 5 tests.
Acute toxicities by p.o and i.p. routes were conducted using groups of ten mice at various dose levels. Groups dosed p.o. and i.p. were assessed for mortality at 24 hours.
The activity of methaqualone (2-methyl-3-(o-tolyl)-4-quinazolone) was investigated under the same conditions by using the test procedures indicated in the five tests above.

[6] = tested on: rat; assay: Righting Reflex Test in Rat; assay type: in vivo, Sprague-Dawley rat; details: for ED50: male Sprague-Dawley rat, read-out: ED50 (loss of righting reflex)
Description: Groups of ten male Sprague-Dawley rats received the test compound i.p. or p.o. at various doses. The animals dosed i.p. were assessed for loss of righting reflex immediately after dosing and those dosed p.o. were assessed at 1/4, 1/2, 1, 2, 4 and 6 hours after dosing.

[7] = Acute Toxicity Test in Rat; details: in vivo
Description: (§1) II. The activity of 2-methyl-3-(o-cyanophenyl)-4(3H)-quinazolone hydrochloride was also investigated in rat by the following tests.
(§2) Groups of ten rats were dosed p.o. or i.p. with various doses of the test compound and after 24 hours were assessed for mortality.
(§3) The activity of Methaqualone was investigated in the same conditions.

[8] = tested on: rat; assay: Acute Toxicity Test in Rat
Description: as §1, §2, §3

[9] = ip, i.p., assessed immediately after dosing
[10] = po, p.o., assessed 1/4 to 6 hours after dosing

Row | SMILES | ED50 ([1]; ip) [mg/kg] | ED50 ([1]; po) [mg/kg] | ED50 ([2]; ip, i.p.) [mg/kg] | ED50 ([2]; po, p.o.) [mg/kg] | ED50 ([3]; ip, i.p.) [mg/kg] | ED50 ([3]; po, p.o.) [mg/kg] | ED50 (dose at which 50% of the mice remained asleep at the cut-off point) [4] [mg/kg] | LD50 at 24 h ([5]; ip) [mg/kg] | LD50 at 24 h ([5]; po) [mg/kg] | ED50 [6, 9] [mg/kg] | ED50 [6, 10] [mg/kg] | LD50 at 24 h ([7]; ip) [mg/kg] | LD50 at 24 h ([7]; po) [mg/kg] | oral hypnotic effectiveness ([1]; oral) | effectiveness compared with Methaqualone ([6]; rat) | toxicity compared with Methaqualone [8]
1 | Cc1ccccc1-n1c(C)nc2ccccc2c1=O [Methaqualone, 2-methyl-3-(o-tolyl)-4-quinazolone, reference compound] | 81 | 160 | 30 | 49 | 21.5 | 42 | 25 | 550 | 1700 | 48 | 170 | 190 | 440 |  |  | 
2 | Cc1nc2ccccc2c(=O)n1-c1ccccc1C#N.Cl [2-methyl-3-(o-cyanophenyl)-4(3H)-quinazolone hydrochloride] | 47 | 112 | 26.5 | 23 | 10 | 9 |  | 570 | 1600 | 28 | 106 | > 300 | > 1000 | very effective oral hypnotic in mouse | much more effective than Methaqualone in the rat | less toxic

Reference: patent US3991193A, “Derivatives of 4(3H)-quinazolone, pharmaceutical compositions thereof and methods of use” (Roussel-UCLAF, priority 1973, dated 1976)
